Assay results from ChEMBL document CHEMBL3272231, “beta-Adrenergic blocking agents. 16. 1-(Acylaminomethyl-, ureidomethyl-, and ureidoethylphenoxy)-3-amino-2-propanols” (1977).

Key:
Type in all cases: functional
[1] = system: Felis catus; assay: In vivo antagonist activity at beta-2 adrenergic receptor in cat assessed as inhibition of vasodepressor response administered as infusion for 30 mins relative to control
[2] = system: Felis catus; assay: In vivo antagonist activity at beta-1 adrenergic receptor in cat assessed as inhibition of isoproterenol-induced tachycardia administered as infusion for 30 mins by cardiotachometric analysis; conditions: 0.5 h
[3] = system: Rattus norvegicus; assay: Partial agonist activity at beta adrenergic receptor in catecholamine-depleted rat assessed as change in heart rate at 2.5 mg/kg, iv

| SMILES | inhibition (INH) [1] | ED50 [2] | Activity [3] |
| --- | --- | --- | --- |
| CC(=O)NCc1cccc(OCC(O)CNC(C)C)c1 (stereo unspecified) | 83% | 0.383 mg/kg |  |
| CCCNC(=O)NCCc1ccc(OCC(O)CNC(C)C)cc1 (stereo unspecified) | 19% | 0.065 mg/kg |  |
| CCCNC(=O)NCCc1ccc(OCC(O)CNC(C)(C)C)cc1 (stereo unspecified) | 27% | 0.266 mg/kg |  |
| CCCNC(=O)NCCc1ccc(OCC(O)CNC(C)C)c(OC)c1 (stereo unspecified) | 6% | 0.867 mg/kg |  |
| CCCCNC(=O)NCCc1ccc(OCC(O)CNC(C)C)cc1 (stereo unspecified) | 0% | 0.515 mg/kg |  |
| CC(=O)NCc1ccc(OCC(O)CNC(C)C)cc1 (stereo unspecified) | 0% | 0.142 mg/kg | 2 bpm |
| CC(=O)NCc1ccc(OCC(O)CNC(C)(C)C)cc1 (stereo unspecified) | 32% | 0.21 mg/kg | -7 bpm |
| CC(=O)NCc1ccc(OCC(O)CNC(C)(C)C)c(Cl)c1 (stereo unspecified) | 30% | 0.021 mg/kg | -30 bpm |
| COc1ccc(CCNCC(O)COc2ccc(CNC(C)=O)cc2Cl)c(OC)c1 (stereo unspecified) | 17% | 1.5 mg/kg |  |
| CC(=O)NCc1ccc(OCC(O)CNC(C)C)c(Br)c1 (stereo unspecified) | 5% | 0.083 mg/kg | -17 bpm |
| CCCc1cc(CNC(C)=O)ccc1OCC(O)CNC(C)C (stereo unspecified) | 51% | 0.04 mg/kg | -17 bpm |
| C=CCc1cc(CNC(C)=O)ccc1OCC(O)CNC(C)C (stereo unspecified) | 61% | 0.035 mg/kg | -16 bpm |
| COc1cc(CNC(C)=O)ccc1OCC(O)CNC(C)C (stereo unspecified) | 5% | 0.312 mg/kg | -9 bpm |
| COc1cc(CNC(C)=O)ccc1OCC(O)CNC(C)(C)C (stereo unspecified) | 70% | 0.045 mg/kg | -16 bpm |
| CCC(=O)NCc1ccc(OCC(O)CNC(C)C)cc1 (stereo unspecified) | 16% | 0.658 mg/kg | -6 bpm |
| CCC(=O)NCc1ccc(OCC(O)CNC(C)C)c(Cl)c1 (stereo unspecified) | 83% | 0.63 mg/kg | -15 bpm |
| CCC(=O)NCc1ccc(OCC(O)CNC(C)C)c(Br)c1 (stereo unspecified) | 7% | 0.269 mg/kg | -15 bpm |
| CCC(=O)NCc1ccc(OCC(O)CNC(C)(C)C)c(Br)c1 (stereo unspecified) | 21% | 0.1 mg/kg | 0 bpm |
| CCCc1cc(CNC(=O)CC)ccc1OCC(O)CNC(C)C (stereo unspecified) | 34% | 0.163 mg/kg | 4 bpm |
| C=CCc1cc(CNC(=O)CC)ccc1OCC(O)CNC(C)C (stereo unspecified) | 3% | 0.098 mg/kg | -10 bpm |
| CCC(=O)NCc1ccc(OCC(O)CNC(C)C)c(OC)c1 (stereo unspecified) | 37% | 0.449 mg/kg | -19 bpm |
| CCC(=O)NCc1ccc(OCC(O)CNC(C)(C)C)c(OC)c1 (stereo unspecified) | 72% | 1.09 mg/kg | -12 bpm |
| CCOc1cc(CNC(=O)CC)ccc1OCC(O)CNC(C)C (stereo unspecified) | 48% | 0.331 mg/kg | -10 bpm |
| CCOc1cc(CNC(=O)CC)ccc1OCC(O)CNC(C)(C)C (stereo unspecified) | 68% | 1.41 mg/kg |  |

| SMILES | inhibition (INH) [1] | ED50 [2] | Activity [3] |
| --- | --- | --- | --- |
| CCCC(=O)NCc1ccc(OCC(O)CNC(C)C)cc1 (stereo unspecified) | 51% | 1.4 mg/kg |  |
| CCCC(=O)NCc1ccc(OCC(O)CNC(C)(C)C)c(OC)c1 (stereo unspecified) | 17% | 0.282 mg/kg | -10 bpm |
| CC(C)NCC(O)COc1ccc(CNC(=O)C(C)C)cc1Br (stereo unspecified) | 43% | 1.1 mg/kg | -16 bpm |
| COc1cc(CNC(=O)C(C)C)ccc1OCC(O)CNC(C)C (stereo unspecified) | 3% | 1.14 mg/kg | -16 bpm |
| CCCCCCC(=O)NCc1ccc(OCC(O)CNC(C)(C)C)c(Cl)c1 (stereo unspecified) | 40% | 1.42 mg/kg |  |
| CC(C)NCC(O)COc1ccccc1CNC(=O)c1ccc(Cl)cc1 (stereo unspecified) | 45% | 0.304 mg/kg | 14 bpm |
| CC(C)NCC(O)COc1ccc(CNC(N)=O)cc1 (stereo unspecified) | 48% | 0.117 mg/kg |  |
| CC(C)NCC(O)COc1ccc(CNC(N)=O)cc1Br (stereo unspecified) | 25% | 0.106 mg/kg |  |
| COc1cc(CNC(N)=O)ccc1OCC(O)CNC(C)C (stereo unspecified) | 0% | 0.072 mg/kg |  |
| COc1cc(CNC(N)=O)ccc1OCC(O)CNC(C)(C)C (stereo unspecified) | 68% | 0.075 mg/kg |  |
| CNC(=O)NCc1ccc(OCC(O)CNC(C)C)c(Cl)c1 (stereo unspecified) | 21% | 0.381 mg/kg |  |
| CNC(=O)NCc1ccc(OCC(O)CNC(C)C)c(Br)c1 (stereo unspecified) | 0% | 0.572 mg/kg |  |
| CNC(=O)NCc1ccc(OCC(O)CNC(C)C)c(OC)c1 (stereo unspecified) | 87% | 0.794 mg/kg |  |
| CCNC(=O)NCc1ccc(OCC(O)CNC(C)C)c(Cl)c1 (stereo unspecified) | 63% | 1.76 mg/kg |  |
| CC(C)NCC(O)COc1ccc(CCNC(N)=O)cc1 (stereo unspecified) | 47% | 0.101 mg/kg |  |
| CNC(=O)NCCc1ccc(OCC(O)CNC(C)C)cc1 (stereo unspecified) |  | 0.193 mg/kg |  |
| CNC(=O)NCCc1ccc(OCC(O)CNC(C)C)c(Br)c1 (stereo unspecified) | 97% | 0.88 mg/kg |  |
| CCNC(=O)NCCc1ccc(OCC(O)CNC(C)C)cc1 (stereo unspecified) | 51% | 1.75 mg/kg |  |
| CC(=O)NCc1ccccc1OCC(O)CNC(C)(C)C (stereo unspecified) | 63% | 0.13 mg/kg | 41 bpm |
| CCC(=O)NCc1ccccc1OCC(O)CNC(C)C (stereo unspecified) | 0% | 0.27 mg/kg | 44 bpm |
| CCCCCCC(=O)NCc1ccccc1OCC(O)CNC(C)C (stereo unspecified) | 19% | 1.16 mg/kg |  |
| CC(=O)NCc1cc(C)ccc1OCC(O)CNC(C)C (stereo unspecified) | 80% | 0.381 mg/kg | 5 bpm |
| CC(=O)Nc1ccc(OCC(O)CNC(C)C)cc1 (stereo unspecified) [PRACTOLOL] | 8% |  |  |
